Test results published in publication PMC3466204 (PLoS ONE, 2012).
Where “and” joins values, the source holds several entries; their conditions need not be identical. Equal entries are not always repeated. Ends that are not written are not given here.

Legend:
Lactococcus lactis HP = assay: Agarose-based assay of cell-free supernatants of S29X producing strains
Procedure, shortened: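 Deferred antagonism in 1% agarose underlay (10 mM sodium phosphate, pH 7.4) seeded with mid-log indicator bacteria at 2×10^7 CFU/mL. Cell-free supernatant or purified peptide placed in 4.6 mm wells, held 3 h at 30 °C (L. lactis), 37 °C (Gram-positives) or RT (Gram-negatives). Plates were then overlaid with GM17 or LB agarose and incubated overnight.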

L. lactis HP = assay: Broth MIC, Gram positive; type: cell-based; settings: broth microtitre, BSA pre-treated plates, 10^5 cfu ml^−1, 2-fold dilutions from 500 nM, 16 h, purified peptide, mean of triplicate assays
Experimental: (§1) Minimum inhibitory concentration determinations for Gram positive organisms were carried out in triplicate in microtitre plates (Sarstedt). 96 well microtitre plates were pre-treated with bovine serum albumin (BSA) prior to addition of the peptides. Briefly, to each well of the microtitre plate 200 µL of phosphate buffered saline (PBS) containing 1% (w/v) bovine serum albumin (PBS/BSA) was added and incubated at 37°C for 30 min. The wells were washed with 200 µL PBS and allowed to dry. Target strains were grown overnight in the appropriate conditions and medium, subcultured into fresh broth and allowed to grow to an OD600 of ∼0.5, diluted to a final concentration of 10^5 cfu ml^−1 in a volume of 0.2 ml. Wild type nisin and nisin mutant peptides were adjusted to a 10 µM (S. mitis, B. cereus), 7.5 µM (L. monocytogenes), 5 µM (hVISA) 2.5 µM (MRSA, E. durans), or 500 nM (L. lactis strains) starting concentration and 2-fold serial dilutions of each peptide were added to the target strain.

L. lactis MG1363 = assay: Broth MIC, Gram positive; type: cell-based; settings: broth microtitre, BSA pre-treated plates, 10^5 cfu ml^−1, 2-fold dilutions from 500 nM, 16 h, purified peptide, mean of triplicate assays
Experimental: as §1

L. monocytogenes 10403S = assay: Broth MIC, Gram positive; type: cell-based; settings: broth microtitre, BSA pre-treated plates, 10^5 cfu ml^−1, 2-fold dilutions from 7.5 µM, 16 h 37°C, purified peptide, mean of triplicate assays
Experimental: as §1

L. monocytogenes LO28 [1] = assay: Broth MIC, Gram positive; type: cell-based; settings: broth microtitre, BSA pre-treated plates, 10^5 cfu ml^−1, 2-fold dilutions from 7.5 µM, 16 h 37°C, purified peptide, mean of triplicate assays
Experimental: as §1

S. aureus RF122 [2] = assay: Broth MIC, Gram positive; type: cell-based; settings: broth microtitre, BSA pre-treated plates, 10^5 cfu ml^−1, 2-fold dilutions, 16 h 37°C, purified peptide, mean of triplicate assays
Experimental: as §1

[3] = tested on: ST 528 (Methicillin resistant S. aureus); assay: Broth MIC, Gram positive; type: cell-based; settings: broth microtitre, BSA pre-treated plates, 10^5 cfu ml^−1, 2-fold dilutions from 2.5 µM, 16 h 37°C, purified peptide, mean of triplicate assays
Experimental: as §1

B. cereus DPC 6088 = assay: Broth MIC, Gram positive; type: cell-based, Bacillus cereus; settings: broth microtitre, BSA pre-treated plates, 10^5 cfu ml^−1, 2-fold dilutions from 10 µM, 16 h 37°C, purified peptide, mean of triplicate assays
Experimental: as §1

B. cereus DPC 6089 = assay: Broth MIC, Gram positive; type: cell-based, Bacillus cereus; settings: broth microtitre, BSA pre-treated plates, 10^5 cfu ml^−1, 2-fold dilutions from 10 µM, 16 h 37°C, purified peptide, mean of triplicate assays
Experimental: as §1

E. durans 5133 = assay: Broth MIC, Gram positive; type: cell-based, Enterococcus durans; settings: broth microtitre, BSA pre-treated plates, 10^5 cfu ml^−1, 2-fold dilutions from 2.5 µM, 16 h 37°C, purified peptide, mean of triplicate assays
Experimental: as §1

E. coli 0157-H7 = assay: Broth MIC, Gram negative; type: cell-based; settings: cells washed in 10 mM SPB pH 7.4, 2×10^5 CFU/mL, 2 h RT with peptide, then double strength LB, RT overnight, mean of triplicate assays
Experimental: (§2) Minimum inhibitory concentration determinations for Gram negative strains were carried out in triplicate in 96 well microtitre plates. Briefly, bacteria (E. coli, C. sakazakii and Salmonella) grown to mid-logarithmic phase were harvested by centrifugation, washed with 10 mM SPB at pH 7.4, and diluted to 2×10^5 colony-forming units (CFU)/mL in SPB. Nisin and nisin derivative peptides were resuspended in sterile HPLC water and 50 µL aliquots were added to wells containing 50 µL of 2×10^5 CFU of bacteria. Plates were incubated at RT for two hours with agitation. Double strength Luria–Bertani (LB) broth (100 µL) was added and the plates were incubated at RT overnight, the MIC was taken as the lowest concentration at which growth was inhibited.

[4] = tested on: Salmonella enterica serovar Typhimurium UK1; assay: Broth MIC, Gram negative; type: cell-based; settings: cells washed in 10 mM SPB pH 7.4, 2×10^5 CFU/mL, 2 h RT with peptide, then double strength LB, RT overnight, mean of triplicate assays
Experimental: as §2

C. sakazakii DPC 6440 = assay: Kill curve analysis; type: cell-based, Cronobacter sakazakii; settings: 33 mg/L purified peptide, 2×10^5 cfu ml^−1, 37°C for 1 hour
Experimental: (§3) Using purified peptide in each case, 10 mM sodium phosphate buffer washed C. sakazakii, E. coli and Salmonella strains were diluted to a final concentration of 2×10^5 cfu ml^−1 and were exposed to nisin A, S29G and S29A at a concentration of 33 mg/L. Following incubation at 37°C for 1 hour, bacterial growth was monitored through plate counts.

S. typhimurium UK-1 = assay: Kill curve analysis; type: cell-based, Salmonella enterica serovar Typhimurium; settings: 33 mg/L purified peptide, 2×10^5 cfu ml^−1, 37°C for 1 hour
Experimental: as §3

L. monocytogenes LO28 [5] = assay: Deferred antagonism assay of producing strains; type: cell-based; settings: L. monocytogenes LO28, data not shown
Experimental: (§4) Deferred antagonism assays were performed by replicating strains on GM17 agar plates and allowing them to grow overnight before overlaying with either GM17/BHI/TSB-YE/MH agar (0.75% w/v agar) seeded with the appropriate indicator strain. For higher throughput screening of the S29X bank, deferred antagonism assays were performed by replicating strains using a 96 pin replicator (Boekel) or spotting 5 µl of a fresh overnight culture on GM17 agar plates and allowing them to grow overnight. Following overnight growth the strains were subjected to UV radiation for 30 minutes prior to overlaying with either GM17/BHI/TS/MH agar (0.75% w/v agar) seeded with the appropriate indicator.

S. aureus RF122 [6] = assay: Deferred antagonism assay of producing strains; type: cell-based
Experimental: as §4

S. aureus SA113 = assay: Deferred antagonism assay of producing strains; type: cell-based; settings: zone of inhibition around producer colony
Experimental: as §4

Substance: S29G: bioengineered nisin A derivative with a serine to glycine change at position 29 (ITSISLCTPGCKTGALMGCNMKTATCHCGIHVSK; thioether (positions not given here); not fully specified (residues 2, 5, 33, bridges); UniProt P13068 24-57, looked up, variant S29G)
- Zone Diameter (mm) (Lactococcus lactis HP; agarose (1%) GM17 assay, 10 µl cell-free supernatant of overnight producing culture in 4.6 mm wells, L. lactis HP, 30°C): 15.4±0.5 mm
- % difference (zone relative to wild type) (Lactococcus lactis HP; agarose assay of supernatants against L. lactis HP, wild type serine = 100): 101%
- MIC (L. lactis HP): 0.1 mg/L and 0.031 µM
- MIC (L. lactis MG1363): 0.4 mg/L and 0.125 µM
- MIC (L. monocytogenes 10403S): 6.28 mg/L and 1.875 µM
- MIC (L. monocytogenes LO28 [1]): 6.28 mg/L and 1.875 µM
- MIC (S. aureus RF122 [2]): 0.52 mg/L and 0.156 µM
- MIC [3]: 0.26 mg/L and 0.078 µM
- MIC (B. cereus DPC 6088): 4.19 mg/L and 1.25 µM
- MIC (B. cereus DPC 6089): 4.19 mg/L and 1.25 µM
- MIC (E. durans 5133): 0.26 mg/L and 0.078 µM
- MIC (E. coli 0157-H7): 25.14 mg/L and 7.5 µM
- MIC [4]: 50.28 mg/L and 15 µM
- Killing compared with nisin A (plate counts) (C. sakazakii DPC 6440): greater activity than wildtype nisin A
- Killing compared with nisin A (plate counts) (S. typhimurium UK-1): greater activity than wildtype nisin A
- Bioactivity of producer relative to nisin A producer (L. monocytogenes LO28 [5]): comparable to that of nisin A
- Bioactivity of producer relative to nisin A producer (S. aureus RF122 [6]): increases the bioactivity
- Bioactivity of producer relative to nisin A producer (S. aureus SA113): enhanced activity
